{"source": "patent US8404839B2", "about": "“Crystalline 4-(3-chloro-2-fluoroanilino)-7 methoxy-6-{[1-(N-methylcarbamoylmethyl)piperidin-4-yl]oxy} quinazoline difumarate Form A” (Astrazeneca AB, priority 2008, dated 2013)", "key": {"[1]": {"assay": "Aqueous solubility (HPLC UV)", "assay_type": "physicochemical", "conditions": "for solubility at 48 h: thermodynamic from solid, 25° C.", "procedure": "(xi) solubility in water was measured using HPLC UV.\nThe intrinsic dissolution rates of Compound (I) difumarate Form A and Compound (I) was also been measured in a range of aqueous buffers."}, "[2]": {"assay": "Pharmacokinetic study in dogs", "assay_type": "in vivo, Male Beagle Dogs", "conditions": "dog, n = 4, mean ± SE; for AUC(0-t): read-out: AUC(0-48)"}, "Dynamic vapour sorption": {"assay": "Dynamic vapour sorption", "assay_type": "physicochemical", "conditions": "for hygroscopicity (in words): Dynamic Vapour Sorption", "procedure": "(ix) dynamic vapour sorption was measured using a SMS DVS (Surface Measurement Systems Limited, UK). Samples were analysed at 25° C. using a gas flow of 200 cubic centimeters per minute. The relative humidity (RH) was increased from 0% RH in steps of 10% RH to 80% RH with the final step of 95% RH. The sample was then desorbed using the same RH step pattern as the sorption; this procedure was then repeated in a second sorption/desorption cycle. Equilibration at each humidity step is set such that the rate of change of weight with time (minute) was 0.002%."}, "[3]": {"assay": "In vitro dissolution of direct compression tablets", "assay_type": "physicochemical", "conditions": "pH 4.5 citrate buffer, 100 mg free base equivalents", "procedure": "The performance of the solid dosage forms was evaluated in vitro prior to the in-vivo dog study commencing."}, "[4]": {"assay": "Intrinsic dissolution rate in aqueous buffers", "assay_type": "physicochemical", "conditions": "for Intrinsic Dissolution Rate: 37° C.", "procedure": "(x) intrinsic dissolution rate was measured in a dissolution bath coupled to a fibre optic uv detector."}, "MCF-7 cells [5]": {"tested_on": "MCF-7 cells", "assay": "Basal MCF-7 cell proliferation assay (MTS)", "assay_type": "cell-based", "conditions": "Homo sapiens, MCF7, 96 h, unstimulated, 4 days, read-out: Basal proliferation Geo Mean GI50", "procedure": "MCF-7 cells were routinely cultured in DMEM (Phenol red free)+10% Foetal Bovine Serum+2 mM L-Glutamine. […] Basal wells were unstimulated with ligand. After incubation for 4 days, cell viability was assessed using a 3-(4,5-dimethylthiazol-2-yl)-5-(3-carboxymethoxyphenyl)-2-(4-sulfophenyl)-2H-tetrazolium (MTS) assay. Prior to IC50 determination of HRG-stimulated compound-treated cells, mean basal growth at 96 hours was subtracted from each of the readouts so that proliferation driven through HRG-signalling was assessed. Basal IC50 values are expressed as GI50 i.e. the day 0 plate cell number (baseline reading) was subtracted from the readout at 96 hours later."}, "ErbB2": {"target": "ErbB2 (Homo sapiens, UniProt P04626)", "sequence (P04626 23-1255)": "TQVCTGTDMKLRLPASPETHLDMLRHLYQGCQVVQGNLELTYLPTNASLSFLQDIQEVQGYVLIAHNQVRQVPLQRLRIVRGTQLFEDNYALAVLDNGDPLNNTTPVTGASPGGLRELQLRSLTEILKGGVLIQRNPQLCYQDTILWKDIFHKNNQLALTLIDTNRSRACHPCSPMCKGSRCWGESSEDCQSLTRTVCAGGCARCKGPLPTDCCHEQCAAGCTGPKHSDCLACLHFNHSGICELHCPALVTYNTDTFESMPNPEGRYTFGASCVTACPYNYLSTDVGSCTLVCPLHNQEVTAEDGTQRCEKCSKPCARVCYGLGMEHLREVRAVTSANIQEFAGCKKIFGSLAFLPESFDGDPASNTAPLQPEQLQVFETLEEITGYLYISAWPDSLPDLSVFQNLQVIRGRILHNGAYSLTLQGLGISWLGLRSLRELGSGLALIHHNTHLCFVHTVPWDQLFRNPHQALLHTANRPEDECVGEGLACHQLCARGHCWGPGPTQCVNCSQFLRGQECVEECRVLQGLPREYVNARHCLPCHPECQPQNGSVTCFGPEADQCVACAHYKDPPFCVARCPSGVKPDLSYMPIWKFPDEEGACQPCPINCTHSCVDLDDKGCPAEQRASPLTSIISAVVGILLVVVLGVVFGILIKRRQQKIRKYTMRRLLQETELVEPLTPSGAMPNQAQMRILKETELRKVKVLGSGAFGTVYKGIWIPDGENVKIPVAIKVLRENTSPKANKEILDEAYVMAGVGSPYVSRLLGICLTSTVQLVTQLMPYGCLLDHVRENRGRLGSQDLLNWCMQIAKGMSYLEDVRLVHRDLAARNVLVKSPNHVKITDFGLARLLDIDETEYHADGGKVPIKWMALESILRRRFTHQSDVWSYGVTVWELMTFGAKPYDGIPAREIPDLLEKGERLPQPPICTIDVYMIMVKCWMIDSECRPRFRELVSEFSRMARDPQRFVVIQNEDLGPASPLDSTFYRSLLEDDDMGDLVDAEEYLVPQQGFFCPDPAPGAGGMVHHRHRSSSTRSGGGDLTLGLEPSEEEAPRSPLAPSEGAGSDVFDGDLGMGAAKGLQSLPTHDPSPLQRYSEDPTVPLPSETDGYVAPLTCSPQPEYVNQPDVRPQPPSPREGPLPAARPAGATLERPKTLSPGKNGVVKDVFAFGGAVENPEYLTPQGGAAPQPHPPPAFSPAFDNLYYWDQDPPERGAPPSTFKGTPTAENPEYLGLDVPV", "assay": "p-ErbB2 ELISA in HRG-stimulated MCF-7 cells", "assay_type": "cell-based", "conditions": "90 minutes treatment, bracket = confidence interval ratio, read-out: p-ErbB2 Geo Mean IC50 (95% CIR)"}, "MCF-7 cells [6]": {"tested_on": "MCF-7 cells", "assay": "HRG-stimulated MCF-7 cell proliferation assay (MTS)", "assay_type": "cell-based", "conditions": "Homo sapiens, MCF7, 96 h, 10 ng/ml HRG, 4 days, basal growth subtracted, read-out: HRG-stimulated proliferation Geo Mean IC50"}, "ErbB3": {"tested_on": "ErbB3", "assay": "p-ErbB3 ELISA in HRG-stimulated MCF-7 cells", "assay_type": "cell-based, Human", "conditions": "90 minutes treatment, bracket = confidence interval ratio, read-out: p-ErbB3 Geo Mean IC50 (95% CIR)", "procedure": "KB cells and MCF-7 cells were obtained from the American Type Culture Collection (ATCC) and routinely cultured in RPMI 1640 (Phenol red free)+10% Foetal Bovine Serum+2 mM L-Glutamine. KB cells were seeded at 5000 cells/well and MCF-7 cells at 4000 cells/well in 96 well plates in RPMI 1640 media containing 10% FBS. Cells were incubated for 72 hours before replacing the media with serum-free RPMI 1640 media for 24 hours. […] Immediately before cell lysis, MCF-7 and KB cells were incubated for 5 minutes with ligand (heregulin (“HRG”) for the MCF-7 cells and epidermal growth factor (“EGF”) for the KB cells) at concentrations required to increase receptor phosphorylation to 90% of max (ED90) to allow inter-assay comparison. The p-EGFR status of KB cells was measured using the Human phospho-EGFR Duoset ELISA kit (R&D systems total EGFR #DYC1854, pEGFR #DYC1095). The p-ErbB2 and p-ErbB3 content of MCF-7 cells were measured using the Human phospho-ErbB2 Duoset ELISA kit (R&D systems, DYC1768) and Human phospho-ErbB3 Duoset ELISA kit (R&D systems, DYC1769) respectively. The kits measured whole cell tyrosine phosphorylation of EGFR, ErbB2 or ErbB3. Assays were performed according to the manufacturers instructions, with 50 μl lysate added per well."}, "[7]": {"assay": "Cellular permeability / BCS classification", "assay_type": "in vitro ADME"}, "[8]": {"conditions": "oral direct compressed tablet, 100 mg free form equivalent"}, "[9]": {"conditions": "oral direct compressed tablet, 100 mg free form equivalent, versus IV 20 mg"}, "[10]": {"conditions": "male, beagle, plasma, oral direct compressed tablet, 100 mg free form equivalent"}}, "note": "Read-outs that look alike come from different tables or passages of the source."}
{"smiles": "CNC(=O)CN1CCC(Oc2cc3c(Nc4cccc(Cl)c4F)ncnc3cc2OC)CC1.O=C(O)/C=C/C(=O)O.O=C(O)/C=C/C(=O)O", "note": "[Compound (I) difumarate Form A, 2-[4-({4-[(3-Chloro-2-fluorophenyl)amino]-7-methoxyquinazolin-6-yl}oxy)piperidin-1-yl]-N-methylacetamide di-[(2E)-but-2-enedioate] Form A]", "values": [{"measurement": "solubility in water", "setting": "[1]; pH 3.5", "result": 22500, "unit": "µg/mL"}, {"measurement": "AUC(0-48)", "setting": "[2]; [8]", "result": "190.3 ± 46.9", "unit": "µM·h"}, {"measurement": "Cmax", "setting": "[2]; [8]", "result": "32.6 ± 3.6", "unit": "µM"}, {"measurement": "Tmax", "setting": "[2]; [8]", "result": "1.1 ± 0.3", "unit": "h"}, {"measurement": "half-life", "setting": "[2]; [8]", "result": "16.9 ± 4.0", "unit": "h"}, {"measurement": "Bioavailability(0-48 h)", "setting": "[2]; [9]", "result": 113, "unit": "%"}, {"measurement": "Bioavailability(0-48 h)", "setting": "[2]; oral direct compressed tablet, 100 mg free form equivalent, versus IV 20 mg, listed as Difumarate Form A", "result": "112.5 ± 8.1", "unit": "%"}, {"measurement": "hygroscopicity (in words)", "setting": "Dynamic vapour sorption", "result": "non-hygroscopic"}, {"measurement": "moisture absorbed (Dynamic Vapour Sorption)", "setting": "Dynamic vapour sorption; up to 95% relative humidity, 25° C.", "result": "< 0.5", "unit": "%"}, {"measurement": "% Dissolution at 45 minutes", "setting": "[3]", "result": 100.3, "unit": "%"}, {"measurement": "Intrinsic Dissolution Rate", "setting": "[4]; SGF (Simulated Gastric Fluid)", "result": 15.9, "unit": "mgmin^−1cm^−2"}, {"measurement": "Intrinsic Dissolution Rate", "setting": "[4]; pH 6.5 phosphate buffer", "result": 2.51, "unit": "mgmin^−1cm^−2"}]}
{"smiles": "CNC(=O)CN1CCC(Oc2cc3c(Nc4cccc(Cl)c4F)ncnc3cc2OC)CC1", "note": "[Compound (I), 4-(3-chloro-2-fluoroanilino)-7-methoxy-6-{[1-(N-methylcarbamoylmethyl)piperidin-4-yl]oxy}quinazoline]", "values": [{"measurement": "solubility at 48 h", "setting": "[1]; aqueous buffer, pH 2.7, 48 hours, read-out: solubility in aqueous buffer", "result": 27200, "unit": "µg/mL"}, {"measurement": "solubility at 48 h", "setting": "[1]; aqueous buffer, pH 7.9, 48 hours, read-out: solubility in aqueous buffer", "result": 1, "unit": "µg/mL"}, {"measurement": "solubility at 48 h", "setting": "[1]; water, 48 hours, pH 7.0, read-out: solubility in water", "result": 1, "unit": "µg/mL"}, {"measurement": "Bioavailability(0-48 h)", "setting": "[2]; [9]", "result": "63.5 ± 7.0", "unit": "%"}, {"measurement": "bioavailability", "setting": "[2]; male, beagle, plasma, oral, 100 mg, oral direct compressed tablet, 100 mg free form equivalent, versus IV 20 mg, read-out: Bioavailability(0-48 h)", "result": 64, "unit": "%"}, {"measurement": "Cmax", "setting": "[2]; male, beagle, plasma, IV 20 mg", "result": "9 ± 1.1", "unit": "µM"}, {"measurement": "AUC(0-t)", "setting": "[2]; male, beagle, plasma, IV 20 mg", "result": "33.4 ± 7.7", "unit": "µM·h"}, {"measurement": "clearance", "setting": "[2]; male, beagle, plasma, IV 20 mg, read-out: Cl (Clearance)", "result": "1.9 ± 0.5", "unit": "mL/min/kg"}, {"measurement": "half-life", "setting": "[2]; male, beagle, plasma, IV 20 mg, read-out: Half-life (converted)", "result": "5.3 ± 0.2", "unit": "h"}, {"measurement": "Tmax", "setting": "[2]; male, beagle, plasma, IV 20 mg, read-out: Tmax", "result": 0.2, "unit": "h"}, {"measurement": "Vd", "setting": "[2]; male, beagle, plasma, IV 20 mg, read-out: Vss (Volume of distribution at steady state)", "result": "0.6 ± 0.1", "unit": "L/kg"}, {"measurement": "Cmax", "setting": "[2]; [10]", "result": "14 ± 1.7", "unit": "µM"}, {"measurement": "AUC(0-t)", "setting": "[2]; [10]", "result": "104 ± 25.3", "unit": "µM·h"}, {"measurement": "half-life", "setting": "[2]; male, beagle, plasma, oral direct compressed tablet, 100 mg free form equivalent, read-out: Half-life (converted)", "result": "8.2 ± 0.6", "unit": "h"}, {"measurement": "Tmax", "setting": "[2]; male, beagle, plasma, oral direct compressed tablet, 100 mg free form equivalent, read-out: Tmax", "result": "1.6 ± 0.8", "unit": "h"}, {"measurement": "GI50", "setting": "MCF-7 cells [5]", "result": 1.09, "unit": "µM"}, {"measurement": "hygroscopicity (in words)", "setting": "Dynamic vapour sorption", "result": "moderately hygroscopic"}, {"measurement": "moisture uptake (Dynamic Vapour Sorption)", "setting": "Dynamic vapour sorption; at 80% relative humidity, 25° C.", "result": "approximately 1.9 % w/w"}, {"measurement": "IC50", "setting": "ErbB2", "result": 0.003, "unit": "µM"}, {"measurement": "IC50", "setting": "MCF-7 cells [6]", "result": 0.061, "unit": "µM"}, {"measurement": "IC50", "setting": "ErbB3", "result": 0.004, "unit": "µM"}, {"measurement": "cellular permeability (in words)", "setting": "[7]", "result": "high"}, {"measurement": "BCS classification", "setting": "[7]; suggested by low solubility and high permeability", "result": "Class II"}, {"measurement": "% Dissolution at 45 minutes", "setting": "[3]", "result": 93.6, "unit": "%"}, {"measurement": "Intrinsic Dissolution Rate", "setting": "[4]; SGF (Simulated Gastric Fluid)", "result": 19.2, "unit": "mgmin^−1cm^−2"}, {"measurement": "Intrinsic Dissolution Rate", "setting": "[4]; pH 6.5 phosphate buffer", "result": 0.01, "unit": "mgmin^−1cm^−2"}, {"measurement": "intrinsic dissolution rate (in words)", "setting": "[4]; particularly at pH below 6.0", "result": "relatively low"}]}
